Values of other authors as cited in patent US11589578B2, “Painting with biocides composition and/or prolonged release pesticides” (priority 2018, dated 2023).
Where two headings read alike, the source gives them in different places.

Settings: for Stability in aqueous media, in words: pH as stated in the value

CC1(C)C(C=C(Cl)Cl)C1C(=O)OC(C#N)c1cccc(Oc2ccccc2)c1 (stereo not shown) [cypermethrin]
Decomposition time (Average life) (aqueous media, pH 9): 7 days

CCN(CC)c1nc(C)cc(OP(=S)(OC)OC)n1 [Methylperimiphos]
Decomposition time (Average life) (aqueous media, pH 5): 7 days
Decomposition time (Average life) (aqueous media, pH 8): 5 days

CCOP(=S)(OCC)Oc1nc(Cl)c(Cl)cc1Cl [Chlorpyrifos]
Decomposition time (Average life) (aqueous media, pH 10): 7 days

O=C(NC(=O)c1c(F)cccc1F)Nc1ccc(Cl)cc1 [Diflubenzuron]
Behaviour at pH 9, in words (aqueous media, pH 9): Hydrolyzes

CC1(C)[C@H](C(=O)O[C@H](C#N)c2cccc(Oc3ccccc3)c2)[C@@H]1C=C(Br)Br [deltamethrin]
Decomposition time (Average life) (aqueous media, pH 7): 0.33 days
Stability in aqueous media, in words: more stable in medium acid solutions

C=CCC1=C(C)C(OC(=O)C2C(C=C(C)C)C2(C)C)CC1=O [D-allethrin]
Decomposition time (Average life) (aqueous media, pH 7): 500 days
Decomposition time (Average life) (aqueous media, pH 9): (4.3 days)
Stability in aqueous media, in words: Stable at a pH 5 after 31 days

CCOP(=S)(OCC)Oc1cc(C)nc(C(C)C)n1 [Diazinon]
Decomposition time (Average life) (aqueous media, pH 5): 31 days
Decomposition time (Average life) (aqueous media, pH 7.5): 185 days
Decomposition time (Average life) (aqueous media, pH 9): 136 days
